# Legend:
# Murine spleen cells [1] = assay: spleen cell proliferation reaction (thymidine incorporation); assay type: cell-based; details: FIG. 7 and FIG. 9
# Method: Murine spleen cells were isolated, and the proliferation reaction for the synthesized glycolipids were measured using thymidine incorporation into the cells as the indicator.
# (§1) Murine spleen cells were isolated, and the proliferation reactions for synthesized glycolipids were measured using thymidine incorporation into the cells as the indicator. […] Murine spleen cells were isolated, and levels of INF-γ and IL-4 formation due to the synthesized glycolipids were measured using the ELISA method.
# Murine spleen cells [2] = assay: spleen cell cytokine measurements (INF-γ and IL-4, ELISA); assay type: cell-based; details: FIG. 8 and FIG. 9
# Method: Murine spleen cells were isolated, and levels of INF-γ and IL-4 formation due to synthesized glycolipids were measured using the ELISA method.
# as §1
# [3] = system: experimental autoimmune encephalomyelitis (EAE); assay: experimental autoimmune encephalomyelitis (EAE) suppression test, B6 mice; assay type: in vivo, C57BL6J(B6) mice; details: for Incidence / Onset / Total score / Max. score / Path. score: 400 ng/kg; for Path. score: pathological score 0-4; for EAE suppression effect: oral administration 400 ng/kg
# [4] = system: experimental autoimmune encephalomyelitis (EAE); assay: EAE suppression test in NKT knockout mice; assay type: in vivo, NKT knockout mice (TCR J alpha 281 knockout mice); details: for Incidence / Max. score / Onset / Total score: NKT knockout mice, 0 day oral administration, 400 ng/kg
# [5] = system: experimental autoimmune encephalomyelitis (EAE); assay: mechanism of EAE suppression, with or without anti-IL-4 antibody; assay type: in vivo, mice
# [6] = system: collagen induced arthritis; assay: collagen arthritis (CIA) suppression test, C57BL6 mice; assay type: in vivo; details: B6 mice, 500 μg/kg intraperitoneally twice a week from the additional immunization, FIG. 4
# [7] = system: collagen induced arthritis; assay: collagen arthritis (CIA) suppression test, SJL mice; assay type: in vivo; details: FIG. 4
# diabetes incidence = assay: suppression test of diabetes incidence in NOD mice; assay type: in vivo; details: NOD mice four weeks in age, 100 μg/kg intraperitoneal, twice, FIG. 5
# Method: Next, a suppression test of diabetes incidence was conducted using NOD mice.
# serum INF-γ and IL-4 = assay: cytokines in blood (serum INF-γ and IL-4, ELISA); assay type: in vivo; details: administered to mice, serum levels with elapsed time, FIG. 6
# Method: A large amount of cytokine is known to be released into the blood in a short duration of time when NKT cells are stimulated. Therefore, serum INF-γ and IL-4 levels with elapsed time were measured using the ELISA method when the synthesized glycolipids were administered to mice.
# anti-MOG antibody = assay: serum anti-MOG antibody measurements (ELISA); assay type: in vivo; details: FIG. 10
# From the text: The ELISA method was used to measure levels of anti-MOG antibody and its isotype in the group treated using synthesized glycolipids. The anti-MOG antibody level rose in the group treated using Compound 25.
# [8] = system: experimental autoimmune encephalomyelitis (EAE), collagen induced arthritis; details: J. Immunol. 2001, 166, 662-669, cited from earlier work
# [9] = 0 day oral administration, clinical score 0-6
# [10] = anti-IL-4 (+), anti-IL-4 antibody (1 mg/ml) intraperitoneally
Compound,spleen cell proliferation reaction (Murine spleen cells [1]),cytokine predominantly formed by spleen cells (INF-γ / IL-4) (Murine spleen cells [2]),Incidence ([3]; 0 day oral administration),Onset ([3]; 0 day oral administration),Total score ([3]; 0 day oral administration),"Max. score [3, 9]",Path. score ([3]; 0 day oral administration),Incidence ([3]; 8th day oral administration),Max. score ([3]; 8th day oral administration),Onset ([3]; 8th day oral administration),Total score ([3]; 8th day oral administration),EAE suppression effect ([3]; result in words),Incidence [4],Max. score [4],Onset [4],Total score [4],"Incidence [5, 10]","Max. score [5, 10]","Onset [5, 10]","Total score [5, 10]",other results
"CCCCCCCCCCCCCCCCCCCCCCCC(=O)N[C@@H](CO[C@H]1O[C@H](CO)[C@H](O)[C@H](O)[C@H]1O)[C@H](O)[C@H](O)CCCC [Compound 23, (2S,3S,4R)-1-O-(α-D-galactosyl)-2-(tetracosanoylamino)-1,3,4-octane triol]",Significant spleen cell proliferation reaction,IL-4 was predominantly formed,–,–,–,–,–,–,–,–,–,–,–,–,–,–,–,–,–,–,–
"CCCCCCCCCCCCCCCCCCCCCCCC(=O)N[C@@H](CO[C@H]1O[C@H](CO)[C@H](O)[C@H](O)[C@H]1O)[C@H](O)[C@H](O)CCC [Compound 24, (2S,3S,4R)-1-O-(α-D-galactosyl)-2-(tetracosanoylamino)-1,3,4-heptane triol]",Significant spleen cell proliferation reaction,IL-4 was predominantly formed,–,–,–,–,–,–,–,–,–,–,–,–,–,–,–,–,–,–,–
"CCCCCCCCCCCCCCCCCCCCCCCC(=O)N[C@@H](CO[C@H]1O[C@H](CO)[C@H](O)[C@H](O)[C@H]1O)[C@H](O)[C@H](O)CCCCC [Compound 25, (2S,3S,4R)-1-O-(α-D-galactosyl)-2-(tetracosanoylamino)-1,3,4-nonane triol]",Significant spleen cell proliferation reaction,IL-4 was predominantly formed,10/12,14.80 ± 1.22,10.71 ± 3.23,1.42 ± 0.33,1.00 ± 0.13,6/7,2.25 ± 0.51,16.43 ± 1.95,10.94 ± 3.40,EAE suppression effect was observed,6/6,3.64 ± 0.28,12.43 ± 0.53,34.36 ± 4.15,10/10,3.50 ± 0.15,9.43 ± 0.90,38.79 ± 2.94,"suppression effect in the pathological test ([3]; oral administration, result in words): suppression effect was observed; EAE suppression effect ([4]; NKT knockout mice (TCR J alpha 281 knockout mice), result in words): could not be observed; Incidence ([5]; anti-IL-4 (−)): 9/10; Max. score ([5]; anti-IL-4 (−)): 2.75 ± 0.37; Onset ([5]; anti-IL-4 (−)): 11.00 ± 0.78; Total score ([5]; anti-IL-4 (−)): 26.05 ± 4.16; EAE suppression effect when anti-IL-4 antibody was administered ([5]; anti-IL-4 antibody, result in words): disappeared; suppression of collagen induced arthritis (clinical score) [6]: A suppression effect was observed; suppression of collagen induced arthritis (clinical score) ([7]; 500 μg/kg intraperitoneally twice a week from the additional immunization): effectively suppressed; suppression of collagen induced arthritis (clinical score) ([7]; 500 μg/kg intraperitoneally twice a week, administration upon appearance of symptoms): effectively suppressed; diabetes incidence (diabetes incidence): significantly suppressed; serum cytokine predominantly formed (INF-γ / IL-4) (serum INF-γ and IL-4): IL-4 was predominantly formed; anti-MOG antibody isotype, IgG1 level (anti-MOG antibody): rose significantly; anti-MOG antibody level (anti-MOG antibody): rose"
"CCCCCCCCCCCCCCCCCCCCCCCCCC(=O)N[C@@H](CO[C@H]1O[C@H](CO)[C@H](O)[C@H](O)[C@H]1O)[C@H](O)[C@H](O)CCCCCCCCCCCCCC [α-GC, (2S,3S,4R)-1-O-(α-D-galactosyl)-2-(N-hexacosanoylamino)-1,3,4-octadecane triol, reference compound]",–,INF-γ was predominantly formed,12/12,14.27 ± 0.98,20.32 ± 4.07,2.41 ± 0.37,1.79 ± 0.38,7/7,3.00 ± 0.29,13.86 ± 0.99,17.50 ± 2.74,no suppression effect was observed,6/6,3.67 ± 0.42,13.33 ± 1.41,32.25 ± 6.66,10/10,3.79 ± 0.29,11.29 ± 1.58,37.00 ± 5.02,"Incidence ([5]; anti-IL-4 (−)): 10/10; Max. score ([5]; anti-IL-4 (−)): 4.00 ± 0.25; Onset ([5]; anti-IL-4 (−)): 9.10 ± 0.84; Total score ([5]; anti-IL-4 (−)): 45.00 ± 3.87; serum cytokine predominantly formed (INF-γ / IL-4) (serum INF-γ and IL-4): INF-γ was predominantly formed; effect in suppressing or treating autoimmune diseases ([8]; EAE and collagen induced arthritis models): clearly not effective; cytokines induced [8]: induces both IL-4, a cytokine that suppresses autoimmune diseases, as well as IFN-γ"

# Reference: patent US8367623B2, “Glycolipid and medicine for autoimmune disease containing the same as active ingredient” (Japan as Represented by President of National Center of …, priority 2001, dated 2013)
